Values after ≈ are worked out from the molar mass of the structure shown.

One assay has as its system phospho-AMPK. The assay is described as follows: phospho-AMPK / p-ACC immunoblotting in Beas2B cells (in vitro studies). It counts as cell-based, Human. The protocol: FIG. 3. (A) Beas2b cells were cultured in DMEM 2% media with glucose for 24 h before switching to glucose-free media. Cells were then exposed to either DMSO or Compound 1 (2 μM) in a time course before being collected for immunoblotting. (B) Beas2B cells were exposed to Compound 1 for 18 h at various doses before being collected for immunoblotting. (C) Beas2b cells were cultured in DMEM 2% media with glucose for 24 h before switching to glucose-free media. Cells were then exposed to AICAR at various doses with or without Compound 1 co-treatment. After 18 h, cells were collected before being assayed by immunoblotting.
FIG. 4. (A) Beas2b cells were cultured in DMEM 2% media with glucose for 24 h before switching to glucose-free media. Cells were then exposed to Compound 12 in a dose dependent manner for 18 h before being collected for immunoblotting. (B) Beas2b cells were cultured in DMEM 2% media with glucose for 24 h before Compound 12 treatment in a dose dependent manner. After 18 h, cells were then collected for immunoblotting. (C) Beas2b cells were cultured in DMEM 2% media with glucose for 24 h before switching to glucose-free media. Cells were then exposed to Compound 12 for 18 h before being collected for mRNA analysis. (D) 50K PBMC cells were cultured in 96 well plates before being exposed to Compound 12 for 4 h. Cells were then treated with LPS (10 ng/ml) for additional 2 h. Media were then collected and IL-1b concentration was determined by ELISA.
FIG. 9. (A) Beas2b cells were cultured in DMEM 2% media with glucose for 24 h before switching to glucose-free media. Cells were then exposed to Compound 23 or metformin in a dose dependent manner for 18 h before being collected for immunoblotting. (B) Beas2b cells were cultured in DMEM 2% media with glucose for 24 h before switching to glucose-free media and treated with Compound 12 or Compound 23 in a dose dependent manner. After 6 h, cells were then collected for immunoblotting. (C) Beas2b cells were cultured in DMEM 2% media with glucose for 24 h before switching to glucose-free media and treated with Compound 12 or Compound 23 in a dose dependent manner. After 18 h, cells were then collected for immunoblotting. (D) Beas2b cells were transfected with AMPK phospho mimic T172D or phospho dead T172A mutant for 24 h. Cells were then switched to glucose-free media and exposed to Compound 23 in a dose or time dependent manner before being collected for immunoblotting. (E) Beas2b cells were transfected with control siRNA or Fbxo48 siRNA for 48 h before switching to glucose-free media. Cells were then exposed to Compound 23 in a dose dependent manner before being collected for immunoblotting. (F) Compound 23 chemical structure.
Compound 1 was studied in in vitro assays using Beas2B cells. […]
Compound 23 was tested in in vitro studies using Beas2B cells and compared with metformin.
Background: In western blotting, separated proteins are transferred to a membrane and probed.

Assay [1] relates to High-fat diet fed C57BL6J mice. The assay is described as follows: Acute oral dosing study in high-fat diet fed mice. It counts as in vivo.
The subject of the next assay is Diet-induced obese mice. Nature of the assay: Diet-induced obese mice study, 14 days dosing. The conditions noted are these: once daily for 14 days; BC1618 8 or 40 mg/kg/d. The format is in vivo. The protocol: FIG. 12. Diet-induced obese mice were fed a high-fat diet for 19 weeks and then injected with vehicle or drug once daily for 14 days. Daily body weights (in grams) of the mice are shown.
Diet-induced obese mice arrived from Jackson Labs and recovered two weeks in satellite housing before study. Mice were 25 weeks old and fed a high-fat diet for 19 weeks at the time of study. Body weight, fat and lean mass were measured and mice were grouped in order to match body weights at ˜46.5 g average per group prior to study. Following the acute dosing trial, mice were injected with vehicle or drug 1× daily between noon and 2 pm for 14 days (BC1618-L (low dose)=8 mg/kg/d, BC1618-H (high dose)=40 mg/kg/d). Body weight was recorded daily (FIGS. 12-15). FIG. 12 and FIG. 13 show body weight in grams and FIG. 14 and FIG. 15 show body weight as a percentage of body weight on day 0 (DO).
FIGS. 16-19 show the change (A) in body weight (BW) from day 0 to day 14 expressed as change in grams (FIG. 16 and FIG. 17) or as percent change from day 0 (FIG. 18 and FIG. 19).
Body composition was measured at DO in the body weight matched animals and again at day 14 (D14). Data in FIGS. 20-23 represent the change in fat mass from DO to D14 expressed as grams (FIG. 20 and FIG. 21) or as percent change (FIG. 22 and FIG. 23).
Data in FIGS. 24-27 represent the change in lean mass from DO to D14 expressed as grams (FIG. 24 and FIG. 25) and as percent change (FIG. 26 and FIG. 27). Overall there appears to be a modest effect of vehicle and drug to reduce lean mass over 14 days, but no differences between groups. Changes in BW over 14 days therefore reflect changes in fat mass and not lean mass.

The test system of a further assay is pAMPK. The assay is described as follows: pAMPK immunoblotting in Beas2B cells (Table 1). The format is cell-based. To be noted: Homo sapiens, BEAS-2B, DMEM media without glucose, compounds 18 h. The protocol:
Additional compounds in Table 1 were or can be prepared according to the above-described Examples. Human bronchial epithelial cells (Beas2B) were seeded in 6-well plates for 18 h. Cells were then exposed to DMEM media without glucose and compounds at various concentrations for an additional 18 h before being collected for immunoblotting.

Take `NC(=O)c1ncn([C@@H]2O[C@H](CO)[C@@H](O)[C@H]2O)c1N` [AICAR, reference compound]: the “concentration at which phospho-AMPK levels increased” value with phospho-AMPK (Beas2b, glucose-free media, 18 h, dose dependent) was roughly 0.05 mM. The “glucose tolerance (intraperitoneal glucose tolerance test)” value in assay [1] (1 g/kg body weight glucose, data not shown) is reported as “no difference in glucose tolerance”. The “body weight at the time of study” value in assay [1] (two oral doses (AICAR 200 mg/kg, BC1618 20 mg/kg)) is recorded as “no differences in body weight”. In assay [1] (two oral doses (AICAR 200 mg/kg, BC1618 20 mg/kg), 2 h after second dose, P=0.08), the “reduction of fasting plasma glucose compared to vehicle” value was 10%. In the assay on Diet-induced obese mice, the “body weight loss (daily body weight)” value is “effect of AICAR and BC1618 on body weight loss”; the “change in body weight from day 0 to day 14” value was “an effect due to AICAR or BC1618”; the “change in fat mass from D0 to D14” value is on record as “apparent additive effect”.
Take `OC(COc1ccc(OCC(O)CN(Cc2ccccc2)Cc2ccccc2)cc1)CN(Cc1ccccc1)Cc1ccccc1` (centres unmarked) [Compound 1]: the “concentration leading to a drastic increase in phospho-AMPK levels” value in the assay on phospho-AMPK (Beas2B cells, 18 h, various doses) amounted to 2 µM. For the same compound, the “phospho-AMPK levels compared to vehicle control” value in the assay with phospho-AMPK (Beas2b, glucose-free media, 2 μM, time course, within 2 h) is on record as “drastically increased”. Further, the “phospho-AMPK and downstream p-ACC levels versus AICAR” value with phospho-AMPK (Compound 1 alone at 4 μM, AICAR at 0.25 mM) was “well exceeding AICAR treatment at 0.25 mM”. Besides, the “effect of co-treatment with AICAR on phospho-AMPK” value in the assay on phospho-AMPK (Compound 1 at 4 μM with AICAR at various doses, 18 h) is recorded as “completely saturated AICAR effects”. In the assay on pAMPK, this compound registered an IC50 of 1 to 10 µg/mL (≈ 1.62 to 16.2 µM).
In the assay with pAMPK, `COCCN(Cc1ccc(OCC(O)CN(C)Cc2ccccc2)cc1)C(C)C` (centres unmarked) [Compound 2] gave a concentration for half-maximal inhibition (IC50) greater than 10 µg/mL.
For `CN(Cc1ccccc1)CC(O)COc1ccc(CNC2CC2)cc1` (centres unmarked) [Compound 3], the IC50 with pAMPK is greater than 10 µg/mL.
`Cc1ccccc1CNCc1ccc(OCC(O)CN(C)Cc2ccccc2)cc1` (centres unmarked) [Compound 4]: the half-maximal inhibitory concentration (IC50) in the assay on pAMPK was greater than 10 µg/mL.
`Cc1ccc(OCC(O)CN(Cc2ccccc2)Cc2ccccc2)cc1` (centres unmarked) [Compound 5] had an IC50 in the assay on pAMPK of 1 to 10 µg/mL (≈ 2.77 to 27.7 µM).
As to `COc1ccc(OCC(O)CN(Cc2ccccc2)Cc2ccccc2)cc1` (centres unmarked) [Compound 6], the half-maximal inhibitory concentration (IC50) with pAMPK lay within 1 to 10 µg/mL (≈ 2.65 to 26.5 µM).
Compound `OC(COc1ccc2ccccc2c1)CN(Cc1ccccc1)Cc1ccccc1` (centres unmarked) [Compound 7] gave an IC50 in the assay with pAMPK of 1 to 10 µg/mL (≈ 2.52 to 25.2 µM).
Consider `OC(CNCc1ccccc1)COc1ccc(OCC(O)CNCc2ccccc2)cc1` (centres unmarked) [Compound 8], for which the IC50 with pAMPK is greater than 10 µg/mL.
`Cc1ccccc1OCC(O)CN(Cc1ccccc1)Cc1ccccc1` (centres unmarked) [Compound 9] registered an IC50 in the assay with pAMPK of 1 to 10 µg/mL (≈ 2.77 to 27.7 µM).
In the case of `CC1CN(Cc2ccc(OCC(O)CN(C)Cc3ccccc3)cc2)C1` (centres unmarked) [Compound 10], in the assay on pAMPK, the half-inhibitory concentration (IC50) was greater than 10 µg/mL.
For `OC(CNC(c1ccccc1)c1ccccc1)COc1ccc(F)cc1` (centres unmarked) [Compound 11], the half-inhibitory concentration (IC50) in the assay with pAMPK was in the range of 1 to 10 µg/mL (≈ 2.85 to 28.5 µM).
`OC(CNC(c1ccccc1)c1ccccc1)COc1ccccc1` (centres unmarked) [Compound 13]: the IC50 in the assay on pAMPK was in the range of 1 to 10 µg/mL (≈ 3 to 30 µM).
For `OC(CNCC(c1ccccc1)c1ccccc1)COc1ccccc1` (centres unmarked) [Compound 14], in the assay with pAMPK, the concentration for half-maximal inhibition (IC50) was 1 to 10 µg/mL (≈ 2.88 to 28.8 µM).
On the same count and under the same terms, to `OC(CNC1c2ccccc2Oc2ccccc21)COc1ccccc1` (centres unmarked) [Compound 15] belongs greater than 10 µg/mL.
As for `OC(COc1ccccc1)CN(Cc1ccccc1)Cc1ccccc1` (centres unmarked) [Compound 16], the IC50 with pAMPK is 1 to 10 µg/mL (≈ 2.88 to 28.8 µM).
Turning to `COc1ccc(OCC(O)CNCC(c2ccccc2)c2ccccc2)cc1` (centres unmarked) [Compound 17], the concentration for half-maximal inhibition (IC50) in the assay on pAMPK is 1 to 10 µg/mL (≈ 2.65 to 26.5 µM).
With `OC(CNC(c1ccccc1)c1ccccc1)COc1ccc(C2CCCCC2)cc1` (centres unmarked) [Compound 18], in the assay on pAMPK, the half-inhibitory concentration (IC50) fell in the range of 1 to 10 µg/mL (≈ 2.41 to 24.1 µM).
In the assay with pAMPK, `OC(COc1ccc(C2CCCCC2)cc1)CN(Cc1ccccc1)Cc1ccccc1` (centres unmarked) [Compound 19] registered a half-maximal inhibitory concentration (IC50) of 1 to 10 µg/mL (≈ 2.33 to 23.3 µM).
In the case of `OC(CNCC(c1ccccc1)c1ccccc1)COc1ccc(C2CCCCC2)cc1` (centres unmarked) [Compound 20], in the assay on pAMPK, the IC50 was greater than 10 µg/mL.
Turning to `O=C(c1ccccc1)c1ccc(OCC(O)CN(Cc2ccccc2)Cc2ccccc2)cc1` (centres unmarked) [Compound 21], the IC50 in the assay with pAMPK is greater than 10 µg/mL.
Same read-out and setting: with `OC(COc1ccc(-c2ccccn2)cc1)CN(Cc1ccccc1)Cc1ccccc1` (centres unmarked) [Compound 22] the figure was greater than 10 µg/mL.
`OC(CN(Cc1ccccc1)Cc1ccccc1)c1ccc2ccccc2c1` (centres unmarked) [Compound 24] yielded a half-maximal inhibitory concentration (IC50) in the assay on pAMPK of 1 to 10 µg/mL (≈ 2.72 to 27.2 µM).
On to `OC(CCc1ccccc1)CN(Cc1ccccc1)Cc1ccccc1` (centres unmarked) [Compound 25], for which, in the assay on pAMPK, the IC50 is greater than 10 µg/mL.
`OC(COc1ccc(C(F)(F)F)cc1)CN1CCc2ccccc2C1` (centres unmarked) [Compound 26]: the IC50 in the assay on pAMPK is greater than 10 µg/mL.
Consider `OC(CNc1ccc(C(F)(F)F)cc1)CNc1ccc(C(F)(F)F)cc1` [Compound 27], for which the IC50 with pAMPK is greater than 10 µg/mL.
For `OC(CNc1ccc(F)cc1)COc1ccc(F)cc1` (centres unmarked) [Compound 28], the IC50 in the assay on pAMPK is greater than 10 µg/mL.
`CN(C)C(=N)N=C(N)N` [metformin, reference compound]: the “concentration range increasing pAMPK phosphorylation and downstream substrate ACC phosphorylation” value in the assay on phospho-AMPK (Beas2b, glucose-free media, 18 h) is on record as “millimolar”.

A word on the IC50: it is the concentration that gives 50% inhibition. A high value points to weaker potency in that assay.

Source of the values: patent US11673853B2, “Small molecule AMPK activators” (University of Pittsburgh—Of the Commonwealth System of …, priority 2016, dated 2023).
